{"source": "paper PMC8267945", "about": "“Plumbagin, a Natural Product with Potent Anticancer Activities, Binds to and Inhibits Dihydroorotase, a Key Enzyme in Pyrimidine Biosynthesis” (International Journal of Molecular Sciences, 2021)", "key": {"huDHOase [1]": {"target": "T1, huDHOase (Homo sapiens, UniProt P27708)", "T1 construct": "huDHOase1456-1846-NdeI-N; made in house; host or cells: E. coli BL21(DE3)", "T1 sequence (P27708 1456-1846)": "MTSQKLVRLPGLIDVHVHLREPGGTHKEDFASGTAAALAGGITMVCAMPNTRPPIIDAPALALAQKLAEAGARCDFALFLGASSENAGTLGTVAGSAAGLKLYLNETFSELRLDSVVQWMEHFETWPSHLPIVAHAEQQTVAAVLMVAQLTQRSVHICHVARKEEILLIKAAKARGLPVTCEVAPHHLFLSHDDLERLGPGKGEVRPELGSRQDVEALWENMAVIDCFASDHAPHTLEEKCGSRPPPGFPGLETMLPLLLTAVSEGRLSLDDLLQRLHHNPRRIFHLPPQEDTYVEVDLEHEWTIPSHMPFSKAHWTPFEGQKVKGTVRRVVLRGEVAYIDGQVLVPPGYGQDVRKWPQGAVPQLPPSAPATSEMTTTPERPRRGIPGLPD", "assay": "rapid spectrophotometric DHOase enzyme assay (hydrolysis of DHO)", "assay_type": "biochemical", "conditions": "200 μM compound in the standard assay", "procedure": "A rapid spectrophotometric assay was used to determine the activity of DHOase. Briefly, the hydrolysis of DHO was measured at 25 °C as the decrease in absorbance at 230 nm. The purified DHOase was added to a 2 mL solution containing 0.5 mM DHO and 100 mM Tris–HCl at pH 8.0 to start the reaction. […] The hydrolysis of DHO was monitored using a UV/Vis spectrophotometer (Hitachi U 3300; Hitachi High-Technologies, Tokyo, Japan). A unit of activity was defined as the amount of enzyme catalyzing the hydrolysis of 1 μmol DHO/min, and the specific activity was expressed in terms of units of activity per mg of enzyme. The kinetic parameters Km and Vmax were determined from a nonlinear plot by fitting the hydrolyzing rate from individual experiments to the Michaelis–Menten equation (Enzyme Kinetics module of Sigma-Plot; Systat Software, Chicago, IL, USA)."}, "ScDHOase–R18A": {"target": "T2, ScDHOase–R18A (Saccharomyces cerevisiae, UniProt P20051, R18A)", "T2 construct": "made in house; host or cells: E. coli BL21(DE3)", "T2 sequence (P20051 whole entry R18A)": "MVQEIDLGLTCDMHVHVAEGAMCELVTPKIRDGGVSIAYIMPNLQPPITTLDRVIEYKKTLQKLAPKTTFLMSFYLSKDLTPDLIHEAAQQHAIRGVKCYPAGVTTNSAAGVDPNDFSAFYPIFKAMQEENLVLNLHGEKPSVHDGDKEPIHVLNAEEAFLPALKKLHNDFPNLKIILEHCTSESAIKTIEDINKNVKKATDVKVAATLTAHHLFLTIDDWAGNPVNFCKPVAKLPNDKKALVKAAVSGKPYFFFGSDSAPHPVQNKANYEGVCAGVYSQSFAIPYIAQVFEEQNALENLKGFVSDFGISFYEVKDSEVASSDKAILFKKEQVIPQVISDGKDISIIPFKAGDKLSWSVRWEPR", "assay": "fluorescence quenching binding assay", "procedure": "(§1) Figure 7 The data used to calculate the Kd values of various DHOases. (A) The fluorescence emission spectra of ScDHOase with PLU of different concentrations (0–200 μM; 0, 10, 20, 50, 75, 100, 125, 150, 175, and 200 μM). The decrease in intrinsic fluorescence of protein was measured at 324 nm upon excitation at 280 nm with a spectrofluorometer. […] (B) The fluorescence emission spectra of huDHOase with PLU of different concentrations (0–200 μM). (C) The fluorescence emission spectra of StDHOase with PLU of different concentrations. (D) The fluorescence emission spectra of ScDHOase–R18A with PLU of different concentrations. (E) The fluorescence emission spectra of ScDHOase–T106A with PLU of different concentrations. […] (F) An aliquot amount of PLU was added to the enzyme solution to determine the Kd. The Kd was obtained by the following equation: ΔF = ΔFmax − Kd(ΔF/[PLU]). Data points are an average of 2–3 determinations within a 10% error.\n(§2) The decrease in the intrinsic fluorescence of DHOase was measured with a spectrofluorometer (Hitachi F-2700; Hitachi High-Technologies, Japan). The Kd was obtained using the following equation: ΔF = ΔFmax − Kd(ΔF/[PLU]).\n(§3) The Kd value of the purified DHOase was determined using the fluorescence quenching method as previously described for DHOase, DHPase, and DnaB helicase. Briefly, an aliquot of the compound was added into the solution containing DHOase (1 μM) and 50 mM HEPES at pH 7.0. The decrease in the intrinsic fluorescence of DHOase was measured at 324 nm upon excitation at 280 nm and 25 °C with a spectrofluorometer (Hitachi F-2700; Hitachi High-Technologies, Japan). The Kd was obtained using the following equation: ΔF = ΔFmax − Kd(ΔF/[PLU])."}, "huDHOase [2]": {"target": "T1, huDHOase", "assay": "fluorescence quenching binding assay", "procedure": "as §1, §2, §3"}, "ScDHOase–T106A": {"target": "T3, ScDHOase–T106A (Saccharomyces cerevisiae, UniProt P20051, T106A)", "T3 construct": "made in house; host or cells: E. coli BL21(DE3)", "T3 sequence (P20051 whole entry T106A)": "as the sequence (P20051 whole entry R18A) above, with A18R, T106A counted along it", "assay": "fluorescence quenching binding assay", "procedure": "as §1, §2, §3"}, "ScDHOase": {"target": "T4, ScDHOase (Saccharomyces cerevisiae, UniProt P20051)", "T4 construct": "made in house; host or cells: E. coli BL21(DE3)", "assay": "fluorescence quenching binding assay", "procedure": "as §1, §2, §3"}, "4T1 cells [3]": {"test_system": "4T1 cells", "assay": "in vitro", "assay_type": "cell-based, mouse", "conditions": "10 μM PLU, 24 h, 4T1 cells", "procedure": "(§4) The 4T1 cells (1 × 10^4) were incubated with PLU in a 100 μL volume. After 24 h, the anticancer potentiality was estimated."}, "in vitro": {"assay": "in vitro", "assay_type": "cell-based, mouse", "conditions": "mouse; PLU 2 μM, 4T1 cells; read-out: Death rate (cell mortality)", "procedure": "as §4"}, "4T1 cells [4]": {"test_system": "4T1 cells", "assay": "wound-healing assay", "assay_type": "cell-based, mouse", "procedure": "The wound-healing assay was performed to study whether PLU can inhibit 4T1 cell migration. Briefly, 4T1 cells were seeded in 24-well plates, incubated in serum-reduced medium for 6 h, wounded in a line across the well with a 200 μL pipette tip, and washed twice with the serum-reduced medium. After different treatments, cells were incubated for 24 h to allow migration."}, "DHPase": {"target": "DHPase", "set-up": "method as in PMID 32147511", "conditions": "cited from earlier work"}}, "data": [{"molecule": "CC1=CC(=O)c2c(O)cccc2C1=O", "note": "[PLU, plumbagin]", "values": [{"measurement": "decrease of the activity of huDHOase", "setting": "huDHOase [1]", "result": 30, "unit": "%"}, {"measurement": "Kd", "setting": "ScDHOase–R18A", "result": "181 ± 5.9", "unit": "µM"}, {"measurement": "quenching of ScDHOase–R18A", "setting": "ScDHOase–R18A; PLU 0–200 μM", "result": 75.1, "unit": "%"}, {"measurement": "λem shift of ScDHOase–R18A", "setting": "ScDHOase–R18A; PLU 0–200 μM", "result": 4.0, "unit": "nm"}, {"measurement": "λmax of ScDHOase–R18A emission", "setting": "ScDHOase–R18A; PLU 0–200 μM", "result": "from 324.5 to 320.5"}, {"measurement": "quenching of huDHOase", "setting": "huDHOase [2]; PLU 0–200 μM", "result": 75.6, "unit": "%"}, {"measurement": "λem shift of huDHOase", "setting": "huDHOase [2]; PLU 0–200 μM", "result": 1.5, "unit": "nm"}, {"measurement": "λmax of huDHOase emission", "setting": "huDHOase [2]; PLU 0–200 μM", "result": "from 340 to 338.5"}, {"measurement": "Kd", "setting": "huDHOase [2]; fluorescence quenching titration curve", "result": "151 ± 4.1", "unit": "µM"}, {"measurement": "Kd", "setting": "ScDHOase–T106A", "result": "70.8 ± 2.6", "unit": "µM"}, {"measurement": "quenching of ScDHOase–T106A", "setting": "ScDHOase–T106A; PLU 0–200 μM", "result": 90.0, "unit": "%"}, {"measurement": "λem shift of ScDHOase–T106A", "setting": "ScDHOase–T106A; PLU 0–200 μM", "result": 6.5, "unit": "nm"}, {"measurement": "λmax of ScDHOase–T106A emission", "setting": "ScDHOase–T106A; PLU 0–200 μM", "result": "from 328 to 321.5"}, {"measurement": "Kd", "setting": "ScDHOase", "result": "64.8 ± 1.6", "unit": "µM"}, {"measurement": "quenching of the intrinsic fluorescence of ScDHOase", "setting": "ScDHOase; 200 μM compound, 324 nm, excitation 280 nm", "result": 87.7, "unit": "%"}, {"measurement": "λmax of ScDHOase emission", "setting": "ScDHOase; PLU 0–200 μM", "result": "from 324 to 317.5"}, {"measurement": "λem shift of ScDHOase", "setting": "ScDHOase; PLU 0–200 μM, blue shift", "result": 6.5, "unit": "nm"}, {"measurement": "cell deaths", "setting": "4T1 cells [3]", "result": 100, "unit": "%"}, {"measurement": "mortality at 24 h, 2 μM", "setting": "in vitro", "result": 8, "unit": "%"}, {"measurement": "inhibition at 10 µM", "setting": "4T1 cells [4]; Mus musculus, 10 μM PLU, 24 h, read-out: inhibition of cell migration", "result": 97, "unit": "%"}, {"measurement": "Migration rate", "setting": "4T1 cells [4]; PLU 2 μM", "result": 84, "unit": "%"}, {"measurement": "IC50", "setting": "DHPase", "result": 58, "unit": "µM"}]}]}
